Measurements as given in publication PMC6813218 (Frontiers in Molecular Neuroscience, 2019).

Columns and labels:
CB1R [1] = system: CB1R; design: method as in Laprairie et al., 2019; settings: ref Laprairie et al., 2019; cited from earlier work
hCB1R [2] = biological target: T1, hCB1R (Homo sapiens, UniProt P21554); format: cell-based; settings: indomethacin alone
Experimental: (§1) Cells were fixed for 10 min at room temperature with 4% paraformaldehyde and washed three times with 0.1 M PBS for 5 min each. Cells were incubated with blocking solution (PBS, 20% Odyssey blocking buffer, and 0.1% TritonX-100) for 1 h at room temperature. […] Cells were washed three times with PBS for 5 min each. Cells were incubated in IR^CW700dye or IR^CW800dye (1:500; Rockland Immunochemicals) and washed three times with PBS for 5 min each. Analyses were conducted using the Odyssey Imaging system and software (version 3.0; Li-Cor).

hCB1R [3] = biological target: T1, hCB1R; assay: [35S]GTPγS binding assay, CHO cell membranes; format: biochemical; settings: 1 μM indomethacin in the presence of 1 nM and 10 μM AEA
Experimental: (§2) Human CB1R and CB2R CHO cell membranes (25 μg protein) were preincubated for 30 min at 30°C with adenosine deaminase (0.5 IU/ml). […] Binding was initiated by the addition of [^35S]GTPγS. Non-specific binding was measured in the presence of 30 μM GTPγS. The reaction was terminated by rapid vacuum filtration (50 mM Tris–HCl; 50 mM Tris–Base; 0.1% BSA) using a 24-well sampling manifold (cell harvester; Brandel, Gaithersburg, MD, United States) and GF/B filters (Whatman, Maidstone, United Kingdom) that had been soaked in buffer (50 mM Tris–HCl; 50 mM Tris–Base; 0.1% BSA) for at least 24 h. Each reaction tube was washed six times with a 1.2-mL aliquot of ice-cold wash buffer. The filters were oven-dried for at least 60 min and then placed in 3 mL of scintillation fluid (Ultima Gold XR, PerkinElmer, Cambridge, United Kingdom). Radioactivity was quantified by liquid scintillation spectrometry.

hCB2R [4] = biological target: T2, hCB2R (Homo sapiens, UniProt P34972); assay: cAMP luciferase reporter assay, HEK-CRE hCB2R-GFP2; format: cell-based; design: expressed in transfected cells; HEK-CRE reporter cells for the cAMP luciferase assay; settings: indomethacin alone
T2 sequence (P34972 whole entry): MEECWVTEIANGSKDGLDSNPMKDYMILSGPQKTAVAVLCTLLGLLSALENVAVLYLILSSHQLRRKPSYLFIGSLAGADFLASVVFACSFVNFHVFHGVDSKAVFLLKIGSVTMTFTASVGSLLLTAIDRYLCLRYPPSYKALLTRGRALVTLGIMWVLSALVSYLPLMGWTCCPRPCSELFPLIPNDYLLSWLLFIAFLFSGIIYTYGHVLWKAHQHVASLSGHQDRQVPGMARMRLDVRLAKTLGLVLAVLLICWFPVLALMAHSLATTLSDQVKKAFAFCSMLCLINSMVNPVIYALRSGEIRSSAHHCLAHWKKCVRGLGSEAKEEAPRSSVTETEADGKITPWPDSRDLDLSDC
Experimental: (§3) HEK-CRE cells were transfected with CB1R-GFP^2 or CB2R-GFP^2. Forty-eight hours post-transfection cells were washed twice with cold PBS and suspended in BRET buffer. Cells were dispensed into 96-well plates (10,000 cells/well) and treated with 10 μM forskolin and ligands (PerkinElmer). Media was aspirated from cells and cells were lysed with passive lysis buffer for 20 min at room temperature (Promega, Oakville, ON, Canada).

hCB2R [5] = biological target: T2, hCB2R; assay: PLCβ3 phosphorylation, in-cell western, HEK293A hCB2R-GFP2; format: cell-based; design: expressed in transfected cells; host or cells: HEK293A cells; HEK-CRE reporter cells for the cAMP luciferase assay; settings: indomethacin alone
Experimental: as §1

hCB2R [6] = biological target: T2, hCB2R; assay: ERK1/2 phosphorylation, in-cell western, HEK293A hCB2R-GFP2; format: cell-based; design: expressed in transfected cells; host or cells: HEK293A cells; HEK-CRE reporter cells for the cAMP luciferase assay; settings: indomethacin alone
Experimental: as §1

C57BL/6J mice [7] = assay: Tetrad: internal body temperature; format: in vivo, mouse; settings: 0.5 and 1 h; for body temperature compared to vehicle: single agent i.p. (CP55940 0.1 mg/kg; indomethacin 2 mg/kg)
Experimental: (§4) Seven-week old, male, C57BL/6J mice (mean weight 25.2 ± 0.5 g) were purchased from The Jackson Laboratory (Bar Harbor, ME, United States). Animals were group housed (5 per cage) with ad libitum access to food, water, and environmental enrichment and maintained on a 12 h light/dark cycle. […] All protocols were in accordance with the guidelines detailed by the Canadian Council on Animal Care (CCAC; Ottawa ON: Vol. 1, 2nd Ed., 1993; Vol. 2, 1984), approved by the Carleton Animal Care Committee at Dalhousie University. In keeping with the ARRIVE guidelines, power analyses were conducted to determine the minimum number of animals required for the study and animals were purchased – rather than bred – to limit animal waste, and all assessments of animal behavior were made by individuals blinded to treatment group ([Kilkenny et al., 2010]).
Internal body temperature was measured via rectal thermometer immediately prior to injection and 0.5, 1, and 4 h following injection.

hCB1R [8] = biological target: T1, hCB1R; format: cell-based; settings: indomethacin alone; remark: listed apart in the source
Experimental: (§5) Briefly, 48 h post-transfection cells were washed twice with cold PBS and suspended in BRET buffer [PBS supplemented with glucose (1 mg/mL), benzamidine (10 mg/mL), leupeptin (5 mg/mL), and a trypsin inhibitor (5 mg/mL)]. Cells were treated with compounds as indicated (PerkinElmer) and coelenterazine 400a substrate (50 μM; Biotium, Hayward, CA, United States) was added.

[9] = design: method as in Remmel et al., 2004; settings: ref Remmel et al., 2004; cited from earlier work
hCB1R [10] = biological target: T1, hCB1R; assay: [3H]CP55940 radioligand binding, CHO cell membranes; settings: 0.7 nM [3H]CP55940; indomethacin between 10 nM and 10 μM, bell-shaped, greatest at 10 and 100 nM
Experimental: Binding was initiated by the addition of transfected human CB1R or CB2R CHO cell membranes (50 μg protein per well). All assays were performed at 37°C for 60 min before termination by the addition of ice-cold Tris binding buffer, followed by vacuum filtration using a 24-well sampling manifold (Brandel Cell Harvester; Brandel Inc., Gaithersburg, MD, United States) and Brandel GF/B filters that had been soaked in wash buffer at 4°C for at least 24 h. Each reaction well was washed six times with a 1.2 mL aliquot of Tris binding buffer. The filters were oven-dried for 60 min and then placed in 3 ml of scintillation fluid (Ultima Gold XR, PerkinElmer, Seer Green, Buckinghamshire, United Kingdom). Radioactivity was quantified by liquid scintillation spectrometry.

hCB1R [11] = biological target: T1, hCB1R; format: binding
Experimental: The assay was terminated by rapid filtration onto GF/B filters pre-soaked in assay buffer using a Brandel cell harvester. The filters were washed six times with the ice-cold buffer before being dried in a heated cabinet. Filters were placed in vials to which 3 mL Ultima Gold scintillation fluid was added. The radioactivity in each vial was then counted for 3 min in a Tri-Carb liquid scintillation counter.

hCB2R [12] = biological target: T2, hCB2R; assay: [35S]GTPγS binding assay, CHO cell membranes; format: biochemical; design: expressed in transfected cells; HEK-CRE reporter cells for the cAMP luciferase assay; settings: data not shown
Experimental: as §2

ICR mice = system: ICR mice; design: method as in Wiley et al. (2006); settings: indomethacin 10 or 30 mg/kg, AEA 30 mg/kg, ref Wiley et al. (2006); cited from earlier work
hCB1R [13] = biological target: T1, hCB1R; format: cell-based; settings: indomethacin alone; remark: listed apart in the source
Experimental: as §3

C57BL/6J mice [14] = assay: Tetrad: catalepsy, ring holding assay; format: in vivo, mouse; settings: for catalepsy: single agent i.p. (CP55940 0.1 mg/kg; indomethacin 2 mg/kg), 1 and 4 h
Experimental: as §4
Catalepsy was assessed in the ring holding assay immediately prior to injection and 1 and 4 h following injection. The mice were placed such that their forepaws clasped a 5 mm ring positioned 5 cm above the surface of the testing space. The length of time the ring was held was recorded (s). The trial was ended if the mouse turned its head or body, or made three consecutive escape attempts.

hCB1R [15] = assay: Bias analysis by operational model, ΔΔLogR (cAMP–βarrestin2), CHO cells; format: cell-based, human; settings: reference agonist CP55940
Experimental: Concentration-response curves (CRC) were fit using non-linear regression with variable slope (four parameters) and used to calculate EC50, Emin, and Emax (GraphPad, Prism, v. 8.0). […] Statistical analyses were conducted by Student’s one

C57BL/6J mice [16] = assay: Tetrad: tail flick latency (anti-nociception); format: in vivo, mouse; settings: for tail flick latency compared to vehicle: single agent i.p. (CP55940 0.1 mg/kg; indomethacin 2 mg/kg), 0.5, 1 and 4 h
Experimental: as §4
Anti-nociception was determined by assessing tail flick latency immediately prior to injection and 0.5, 1, and 4 h following injection. Mice were restrained with their tails placed ∼1 cm into water held at 52°C and the time until the tail was removed was recorded as tail flick latency (s). Observations were ended at 10 s.

hCB2R [17] = biological target: T2, hCB2R; assay: βarrestin1 recruitment, BRET2, HEK293A hCB2R-GFP2; format: cell-based; design: expressed in transfected cells; host or cells: HEK293A cells, transient (Lipofectamine 2000); settings: indomethacin alone
Experimental: as §5

C57BL/6J mice [18] = assay: Tetrad: locomotion, open field test; format: in vivo, mouse
Experimental: as §4
Locomotion was assessed in the open field test immediately prior to injection and 1 and 4 h following injection. Mice were placed in an open space 90 cm × 60 cm and total distance was recorded for 5 min.

CB1R [19] = system: CB1R; design: method as in Pamplona et al., 2012; settings: PAM of ligand binding and cAMP inhibition at CB1R; ref Pamplona et al., 2012; cited from earlier work

T1 sequence (P21554 whole entry): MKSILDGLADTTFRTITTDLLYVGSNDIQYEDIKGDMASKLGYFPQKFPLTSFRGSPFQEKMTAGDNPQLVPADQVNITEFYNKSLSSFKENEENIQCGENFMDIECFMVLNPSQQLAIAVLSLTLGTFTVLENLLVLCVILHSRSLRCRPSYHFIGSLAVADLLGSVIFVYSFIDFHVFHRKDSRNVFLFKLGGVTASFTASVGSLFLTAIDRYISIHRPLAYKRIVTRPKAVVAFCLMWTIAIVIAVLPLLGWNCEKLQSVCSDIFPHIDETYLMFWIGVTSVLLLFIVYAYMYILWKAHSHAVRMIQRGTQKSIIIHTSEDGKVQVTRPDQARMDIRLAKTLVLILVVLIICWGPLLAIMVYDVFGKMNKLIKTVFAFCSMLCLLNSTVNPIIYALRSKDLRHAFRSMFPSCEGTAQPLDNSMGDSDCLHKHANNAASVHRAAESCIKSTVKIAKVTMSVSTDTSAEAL

For C=C(C)[C@@H]1CCC(C)=C[C@H]1c1c(O)cc(CCCCC)cc1O [CBD, cannabidiol], the “concentrations that reduce CP55940 binding” value (CB1R [1]) is given as over 1 µM.
With COc1ccc2c(c1)c(CC(=O)O)c(C)n2C(=O)c1ccc(Cl)cc1 [Indomethacin, indomethacin] the “hCB1R-dependent ERK1/2 phosphorylation” value (hCB1R [2]) was “did not alter”, the “hCB1R-dependent PLCβ3 phosphorylation” value (hCB1R [2]) was “did not alter” and the “[35S]GTPγS binding to hCB1R” value (hCB1R [3]) was “enhanced”. The “hCB2R-dependent cAMP inhibition” value (hCB2R [4]) was “did not alter”, the “hCB2R-dependent PLCβ3 phosphorylation” value (hCB2R [5]) was “did not alter” and the “hCB2R-dependent ERK1/2 phosphorylation” value (hCB2R [6]) was “did not alter”. For the same compound, the “body temperature compared to CP55940 or indomethacin alone” value (C57BL/6J mice [7]; CP55940 0.1 mg/kg + indomethacin 4 mg/kg i.p.) was “further reduced”, the “body temperature compared to vehicle” value (C57BL/6J mice [7]) was “reduced” and the “hCB1R-dependent βarrestin1 recruitment” value (hCB1R [8]) was “did not alter”. The t1/2 in mouse [9] was 51 min, the “[3H]CP55940 binding to hCB1R” value (hCB1R [10]) was “enhanced” and the “rate of dissociation of [3H]CP55940 compared to vehicle” value (hCB1R [11]; 1 μM indomethacin) was “did not change”. The “t1/2 (min) (95% CI) of [3H]CP55940 dissociation” value (hCB1R [11]; +1 μM indomethacin, 24°C, dissociation started with 1 μM unlabeled CP55940) was 4.67 (3.17–8.80) min, the “[35S]GTPγS binding to hCB2R” value (hCB2R [12]) was “did not effect” and the “AEA-dependent hypolocomotion, anti-nociception, hypothermia, and immobility” value (ICR mice) was “enhanced”. The “hCB1R-dependent cAMP levels” value (hCB1R [13]) was “did not alter”, the “catalepsy time compared to CP55940 alone” value (C57BL/6J mice [14]; 2 and 4 mg/kg indomethacin with CP55940 0.1 mg/kg i.p., 1 h) was “significantly increased” and the catalepsy (C57BL/6J mice [14]) was “not”. For the same compound, the “bias between cAMP inhibition and βarrestin2 recruitment (ΔΔLogR)” value (hCB1R [15]; indomethacin in the presence of AEA) was “selectively enhance inhibition of cAMP”, the “bias between cAMP inhibition and βarrestin2 recruitment (ΔΔLogR)” value (hCB1R [15]; indomethacin in the presence of CP55940) was “did not display bias” and the “tail flick latency compared to CP55940 or indomethacin alone” value (C57BL/6J mice [16]; CP55940 0.1 mg/kg + indomethacin 4 mg/kg i.p., 1 h) was “increased”. The “tail flick latency compared to vehicle” value (C57BL/6J mice [16]) was “increased”, the “hCB2R-dependent βarrestin1 recruitment” value (hCB2R [17]) was “did not alter” and the “locomotion compared to CP55940 or indomethacin alone” value (C57BL/6J mice [18]; CP55940 0.1 mg/kg + indomethacin 4 mg/kg i.p., 4 h) was “further reduced”.
For CCCCC[C@H](O)/C=C/C=C\C=C\C=C\[C@@H](O)[C@@H](O)CCCC(=O)O [Lipoxin A4, lipoxin A4], the potency in vitro (CB1R [19]) is listed as “high micromolar”.
For CCCCCCC(C)(C)c1ccc([C@@H]2C[C@H](O)CC[C@H]2CCCO)c(O)c1 [CP55940, (-)-cis-3-[2-Hydroxy-4-(1,1-dimethylheptyl)phenyl]-trans-4-(3-hydroxypropyl)cyclohexanol], the “body temperature compared to vehicle” value (C57BL/6J mice [7]) was “reduced”, the catalepsy (C57BL/6J mice [14]) was “increased” and the “tail flick latency compared to vehicle” value (C57BL/6J mice [16]) was “increased”. The “locomotion (distance traveled in the open field) compared to vehicle” value (C57BL/6J mice [18]; CP55940 0.1 mg/kg i.p., 1 and 4 h) was “reduced”.
